Data taken from patent US20100274500A1, “METHOD AND SYSTEM FOR MEASURING MEMBRANE POTENTIAL BASED ON FLUORESCENCE POLARIZATION” (Seng Enterprises Ltd., priority 2006, published 2010).
Several values for one entry are separate records, joined by “and”; a condition that tells them apart may be missing. Identical values can stand only once.

Columns and labels:
[1] = Direct influence of pH on the fluorescence lifetime of Rh123 and NAO; format: physicochemical; details: Rh123 5 μg/ml, NAO 10 μM
Procedure: The intra-cellular environment is heterogeneous and multi-phased; therefore, changes may occur in the acidity level in different regions in the cell. Measurements were executed, for this reason, to test if the acidic level has any influence on the fluorescence lifetime of the Rh123. The measurements were conducted in a K2 system, in a suspension of Rh123 with a concentration of 13 μM and the suspension of NAO, in a concentration of 10 μM with an acidity level of 6.0, 7.4 and 8.5.

[2] = Direct influence of CCCP and Nigericin on emission spectrum, polarization and lifetime of Rh123 in suspension
Procedure: A suspension of Rh123 at a concentration of 0.5 μg/ml was prepared. The suspension was divided into three aliquots, each containing a volume of 1 ml. To the first part was added 2.5 μl of PBS. To the second part was added 2.5 μl CCCP at a concentration of 2 mM, so that a final concentration of 5 μM CCCP was reached. To the third part was added 2.5 μl of Nigericin, at a concentration of 2 mg/ml, so that a final concentration of 5 μg/ml Nigericin was reached.
In the first stage, the emission spectrum of the suspension was obtained, using CARY ECLIPSE. The suspensions were excited with 480 nm light and the fluorescence was measured between 500-600 nm, while the slits (emission and excitation) were 2.5 nm.
The direct influence of CCCP and/or Nigericin were tested on the same suspensions of Rh123, measuring the lifetimes in contrast to the control.

[3] = Direct influence of viscosity (glycerol) on FLT and FP of Rh123 and NAO; format: physicochemical; details: Rh123 5 μg/ml, NAO 10 μM
Procedure: In these tests, the fluorescence lifetime τF was also measured along with the rotational decay time τR. For this, Rh123 (5 μg/ml) and suspension NAO (10 μM) were dissolved in three glycerol suspensions (30%, 60% and 80% v/v) in PBS. Each measurement was performed in triplicate.

[4] = system: U937 promonocytic cells; assay: Fluorescence lifetime measurements in U937 cells stained with Rh123; format: cell-based; details: for f1(weight) / α1(decay) / τ1(lifetime): long lifetime component (attributed to cytoplasm); for f2(weight) / α2(decay) / τ2(lifetime): short lifetime component (attributed to mitochondria); for fluorescence signal from the probe located in the mitochondria: weight of the short decay component
Procedure: Cell treatment: U937 promonocytic cells were treated with an oxidative phosphorylation uncoupler CCCP and Nigericin as described hereinabove.
Cell staining: Cells were stained by treating with Rh123 and loaded in cell chips.
Fluorescence lifetime measurement: Measurements were carried out using polarizers that were set at magic […]. Rh123 was excited by a 488 nm laser line. Fluorescence testing was conducted from 500 nm wavelengths and above (toward the red area).
The results were obtained from an average, encompassing 30 evaluations, with standard deviations recorded accordingly. The outstanding result is the fact that two lifetime groups were obtained, one long—above 4 nanoseconds—and one short—below 3 nanoseconds. In order to determine which region correlates with which lifetime group both the lifetimes and the weights were considered.

[5] = system: U937 cells; assay: Spectroscopic measurements in whole and ruptured cells stained with Rh123; format: cell-based
Procedure: There were two main goals to these experiments. The first goal was to ascertain whether a fluorescence intensity decreases in cells treated with CCCP, and similarly, to ascertain whether fluorescence intensity increases in cells treated with Nigericin. The second goal was to learn about the characteristics and amount of influence of the cellular medium on the Rh123 spectroscopic properties.
The cells were stained with Rh123 at a concentration of 3 μM and suspended in PBS, at a cell concentration of 350,000/ml. At this cell concentration, no scattered signal was detected in the fluorescence measurement setup.
The measurement was conducted in CARY spectrofluorometer. The excitation was performed at 480±10 nm and the fluorescence was collected using a 530±10 nm filter. The cell suspension was divided into 4 aliquots in volumes of 2 ml, each. First, the spectrum for all the parts was measured and a comparison was performed to verify equal cell concentration in each quota. Second, parts 3 and 4 were treated with CCCP, while acetone was added to parts 1 and 2, at the same concentration and volume as that in which the CCCP was dissolved, and a spectrum measurement was made. At the end of this process, parts 1 and 3 were ruptured by sonication (VCX 130, Sonics and Materials Inc, Newtown, USA), and parts 2 and 4 were centrifuged and the supernatant was removed to measure the background.
Since there are differences in the emission spectrum of Rh123 in the mitochondria and cytoplasm, the area under the emission graphs must also be calculated in estimating the given spectral effect of CCCP. The area is proportionate to the number of emitting molecules and not to the measured intensity.
Cell preparation and measurement were conducted using the Cary system, and were identical to those with CCCP, except that Nigericin was used for […] the cells.
The overall emission intensity was calculated as above for CCCP to investigate the cause of the fluorescence intensity increase by calculating the area below the emission graph. The columns show average values and standard deviation values of at least two identical experiments. The stars indicate the significant statistical differences before the ANOVA test.

[6] = system: U937 promonocytic cells; assay: Fluorescence polarization measurements in U937 cells stained with Rh123; format: cell-based; details: for Mean Polarization: average based on 300 U937 cells stained with Rh123; for Mean Polarization / Mean FP, Left Cell / Mean FP, Right Cell: CCCP 5 μM or Nigericin 5 μg/ml, 15 minutes; for Mean FP, Left Cell / Mean FP, Right Cell: overall polarization of the entire cell, U937 stained with Rh123
Procedure: Fluorescence polarization (FP) evaluation was conducted using U937 promonocytic cells under the following physiological conditions: control, following treatment with CCCP and following treatment with Nigericin. All the cells were stained with Rh123, rinsed, loaded in cell chips and then measured. Cell treatment: U937 promonocytic cells were treated with an oxidative phosphorylation uncoupler CCCP (commercially available from Sigma-Aldrich) at a concentration of 5 μM and Nigericin (commercially available from Sigma-Aldrich) at 5 μg/ml for 15 minutes. Cell staining: Cells were stained by treating with […] Rh123 and loaded in cell chips. Fluorescence polarization measurement: Transmitted light images and fluorescence images were obtained parallel to the excitation field (excitation and emission polarizers set at 0°), and perpendicular to it, with the excitation polarizer set at 0°, and the emission polarizer set at 90°. From every pair of parallel and perpendicular images, the FP value was calculated for each pixel, using the following equation and a polarization map was created according to the following equation: In order to obtain a calibration reference point, the polarization value was obtained from the entire cell. […] Accordingly, a cell chip was used which allowed defining the borders of the cell by means of images of the cell received through transmitted light photographs. The borders were projected on the polarization map and the FP average was calculated for each cell. This process was implemented to evaluate all the cells, and a general average was obtained for each given physiological state.

[7] = system: mitochondria of U937 cells; assay: Mitochondrial membrane potential derived from lifetime decay weights with the Nernst equation; format: cell-based; details: estimated with the f value, Nernst equation at 300° K, VC/VM≅500, U937 cells treated with CCCP
From the text: The following example describes the use of weights ƒ and/or α, decay components, to estimate the probe concentration in the mitochondria and the cytoplasm and from this to derive the membrane potential using the Nernst Equation.
The weight is proportional to the total measured fluorescence signal from an area with a certain fluorescence lifetime. In relying on the results of the measurement, it can be assumed that the decay level in the mitochondria and the cytoplasm is equal and, therefore, is not taken into consideration. In order to convert the weight ratio to concentration ratios, it is necessary to multiply them by the inverted volume ratio, i.e., VC/VM (C-Cytoplasm, M-Mitochondria). Given that this ratio is constant for a certain type of synchronized cells, [data not shown], despite the complex measurement-calculation, it is enough to execute this operation only once.
Considering the Nernst equation at 300° K and the measured fluorescence signal: […]

| SMILES | Fluorescence life-time τF ([1]; pH 6.0) | Fluorescence life-time τF ([1]; pH 7.4) | Fluorescence life-time τF ([1]; pH 8.5) | FP ([3]; Glycerin 30% v/v in PBS) | τF ([3]; Glycerin 30% v/v in PBS) | τR (rotational decay time) ([3]; Glycerin 30% v/v in PBS) | FP ([3]; Glycerin 60% v/v in PBS) | τF ([3]; Glycerin 60% v/v in PBS) | τR (rotational decay time) ([3]; Glycerin 60% v/v in PBS) | FP ([3]; Glycerin 80% v/v in PBS) | τF ([3]; Glycerin 80% v/v in PBS) | τR (rotational decay time) ([3]; Glycerin 80% v/v in PBS) | f1(weight) [4] | α1(decay) [4] | τ1(lifetime) [4] | f2(weight) [4] | α2(decay) [4] | τ2(lifetime) [4] | fluorescence signal from the probe located in the mitochondria [4] | Mean Polarization [6] | other results |
| --- | --- | --- | --- | --- | --- | --- | --- | --- | --- | --- | --- | --- | --- | --- | --- | --- | --- | --- | --- | --- | --- |
| COC(=O)c1ccccc1-c1c2ccc(=N)cc-2oc2cc(N)ccc12.Cl [Rh123] | 4.204 ± 0.064 nsec | 4.325 ± 0.007 nsec | 4.215 ± 0.037 nsec | 0.090 ± 0.007 | 3.861 ± 0.142 nsec | 0.460 ± 0.010 nsec | 0.200 ± 0.005 | 3.536 ± 0.018 nsec | 2.219 ± 0.006 nsec | 0.366 ± 0.010 | 3.500 ± 0.211 nsec | 8.463 ± 0.047 nsec | – | – | – | – | – | – | – | – | lifetime of Rh123 in a water suspension (PBS) [2]: ~4.2 nsec |
| CO[C@@H]1C[C@@H](C[C@H]2CC[C@H](C)[C@H]([C@@H](C)C(=O)O)O2)O[C@]2(O[C@](C)([C@H]3CC[C@@](C)([C@@H]4O[C@@H]([C@H]5O[C@@](O)(CO)[C@H](C)C[C@@H]5C)C[C@@H]4C)O3)C[C@H]2C)[C@@H]1C [Nigericin] | – | – | – | – | – | – | – | – | – | – | – | – | 0.330 | 0.138 ± 0.048 | 7.735 ± 0.828 nsec | 0.670 | 0.862 ± 0.030 | 2.519 ± 0.174 nsec | 86% | 0.258 ± 0.025 | fluorescence signal from the probe found in the cytoplasm ([4]; weight of the long decay component): 14%; overall emission intensity from a suspension of ruptured cells ([5]; U937 cells treated prior to rupture, entire emission range): higher than that received from an untreated cell suspension; overall emission intensity from whole cells ([5]; whole U937 cells stained with Rh123, complete emission range): higher than that of untreated cells; Mean FP, Left Cell [6]: 0.255 ± 0.057; Mean FP, Right Cell [6]: 0.253 ± 0.048; polarization values in the mitochondrial areas ([6]; polarization map of U937 cells stained with Rh123, compared with control): lower |
| N#CC(C#N)=NNc1cccc(Cl)c1 [CCCP] | – | – | – | – | – | – | – | – | – | – | – | – | 0.867 | 0.690 ± 0.105 | 4.27 nsec and 4.271 ± 0.292 nsec | 0.133 | 0.310 ± 0.100 | 1.475 ± 0.423 nsec | about 30% | 0.346 ± 0.013 | Δψ (mitochondrial membrane potential) [7]: ~−112.84 mV; number of fluorescent molecules (overall emission intensity following cell rupture) ([5]; ruptured U937 cells stained with Rh123, with and without CCCP): does not diminish the number of fluorescent molecules; leakage of the probe (background signal of the suspending solution) ([5]; supernatant of U937 cells stained with Rh123 following CCCP treatment): causes leakage from the entire cell; emission maximum wavelength of intra-cellular Rh123 following activation of CCCP ([5]; whole U937 cells stained with Rh123 3 μM, 534 nm before CCCP): 532 nm; Mean FP, Left Cell [6]: 0.343 ± 0.034; Mean FP, Right Cell [6]: 0.324 ± 0.046 |
| CCCCCCCCC[n+]1c2cc(N(C)C)ccc2cc2ccc(N(C)C)cc21.[Br-] [NAO] | 1.086 ± 0.028 nsec | 1.051 ± 0.003 nsec | 1.066 ± 0.006 nsec | 0.110 ± 0.007 | 1.599 ± 0.072 nsec | 0.923 ± 0.181 nsec | 0.179 ± 0.009 | 2.081 ± 0.056 nsec | 1.298 ± 0.057 nsec | 0.303 ± 0.004 | 2.556 ± 0.009 nsec | 3.888 ± 0.181 nsec | – | – | – | – | – | – | – | – | – |
